From patent US7071168B2, “Anti-cancer compounds and methods related thereto” (The Regents of the University of Colorado, priority 1998, dated 2006)

What was measured:
SCLC strain SHP-77 = assay: Colorimetric tetrazolium (MTT) assay for cell survival, SCLC strain SHP-77; assay type: cell-based, human
Summary of the method: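 MTT assay: cells seeded overnight, treated in triplicate across a concentration range for 4 days at 37 °C, 5% CO2. On day 5, MTT was added for 4 h; formazan was dissolved in acidified isopropanol and absorbance read.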

[1] = system: bradykinin response of isolated guinea pig ileum; assay: Anti-bradykinin activity on isolated guinea pig ileum; conditions: higher numbers indicate higher potency
Summary of the method: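 Bradykinin concentration-effect curves were run in the absence and presence of compound. Tissue: 25 mm terminal ileum from male Hartley guinea pigs fasted overnight, held at 1 g tension in O2/CO2-bubbled Krebs' solution after 1 h equilibration.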

[2] = target: T1, cloned human bradykinin B2 receptors (Homo sapiens, UniProt P30411); assay: Anti-bradykinin activity on cloned human B2 receptors (CHO cells, Cytosensor microphysiometer); assay type: cell-based; conditions: higher numbers indicate higher potency
T1 sequence (P30411 1-391): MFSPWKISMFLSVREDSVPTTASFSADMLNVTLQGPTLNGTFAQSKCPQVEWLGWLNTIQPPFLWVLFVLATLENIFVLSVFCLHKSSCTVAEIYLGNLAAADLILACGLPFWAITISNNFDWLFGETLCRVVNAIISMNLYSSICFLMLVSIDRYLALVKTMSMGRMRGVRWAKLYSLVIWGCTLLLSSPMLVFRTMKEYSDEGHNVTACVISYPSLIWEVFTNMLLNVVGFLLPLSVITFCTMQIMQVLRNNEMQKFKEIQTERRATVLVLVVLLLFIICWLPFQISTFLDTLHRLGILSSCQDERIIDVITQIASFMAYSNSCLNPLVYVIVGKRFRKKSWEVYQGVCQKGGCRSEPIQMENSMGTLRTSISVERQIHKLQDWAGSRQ
Protocol: In general, Anti-bradykinin activity was determined by the classical guinea pig ileum assay and on Chinese hamster ovary (CHO) cells expressing cloned human bradykinin B2 receptors. Anti-tumor activity was determined on cultured human cancer cell lines using the standard tetrazolium (MTT) assay.
Chinese hamster ovary cells containing cloned and expressed human bradykinin B2 receptors were grown in cell cups of the Cytosensor microphysiometer in Ham's F-12 medium supplemented with sodium pyruvate and 10% FBS (Gibco 11765-054). For assay the cells were transferred to Ham's F-12 without bicarbonate or serum (Gibco 21700-075) and placed in the Cytosensor. Concentration-response curves were constructed to bradykinin in the presence or absence of new compounds.

[3] = isolated guinea pig ileum, pD2 of bradykinin is 7.4
[4] = cloned human B2 receptors, pD2 for bradykinin is 11

Molecule | MTT: ED50 for killing of SCLC strain SHP-77 in vitro (SCLC strain SHP-77; SCLC strain SHP-77 in vitro) [µM] | GPI: pA2 for bradykinin antagonist activity on isolated guinea pig ileum [1, 3] | HUMAN: pA2 for bradykinin antagonist potency on cloned human B2 receptors [2, 4] | MTT: ED50 for killing of SCLC strain SHP-77 in vitro (SCLC strain SHP-77; Table 1, SHP-77, MTT, 4 days) [µM] | GPI: pA2 for bradykinin antagonist activity on isolated guinea pig ileum ([1]; Table 1) | HUMAN: pA2 for bradykinin antagonist potency on cloned human B2 receptors ([2]; Table 1)
CC1(C)CC(NC(=O)[C@H](Cc2ccc3ccccc3c2)NC(=NC2CCCCC2)NC2CCCCC2)CC(C)(C)N1 [M222] | 15 | 6.8 | Inact |  |  | 
CC1(C)CC(NC(=O)C(NC(=O)C=Cc2ccc(NC(=O)CCCCCCCCCCC(=O)Nc3ccc(C=CC(=O)NC(C(=O)NC4CC(C)(C)NC(C)(C)C4)C4Cc5ccccc5C4)cc3)cc2)C2Cc3ccccc3C2)CC(C)(C)N1 (stereo not shown) [M294] | 1.8 | Inact | 10.3 |  |  | 
CC1(C)CC(NC(=O)[C@H](Cc2ccc3ccccc3c2)NC(=O)C=Cc2ccc(NC(=O)CCCCCCCCCCC(=O)Nc3ccc(C=CC(=O)N[C@@H](Cc4ccc5ccccc5c4)C(=O)NC4CC(C)(C)NC(C)(C)C4)cc3)cc2)CC(C)(C)N1 [M310] | 1.2 | 5.1 | Inact |  |  | 
O=C(C=Cc1cccnc1)NC(Cc1ccc2ccccc2c1)C(=O)NC1CCCCC1 (stereo not shown) [M408] | 22 | 4.6 | 11.5 |  |  | 
CC1(C)CC(NC(=O)C(Cc2csc3ccccc23)NC(=O)C=Cc2c(F)c(F)c(F)c(F)c2F)CC(C)(C)N1 (stereo not shown) [M418] | 3.8 | 7.0 | 10.3 |  |  | 
CC1(C)CC(NC(=O)[C@H](Cc2csc3ccccc23)NC(=O)CCCCCCCCCCC(=O)N[C@@H](Cc2csc3ccccc23)C(=O)NC2CC(C)(C)NC(C)(C)C2)CC(C)(C)N1 [M430] | 18 | 5.3 | 11.3 |  |  | 
CC1(C)CC(NC(=O)C(Cc2cccnc2)NC(=O)C=Cc2c(F)c(F)c(F)c(F)c2F)CC(C)(C)N1 (stereo not shown) [M438] | 26 | 4.8 | 10 |  |  | 
Cc1ccc(CSCC(NC(=O)C=Cc2c(F)c(F)c(F)c(F)c2F)C(=O)NC2CC(C)(C)NC(C)(C)C2)cc1 (stereo not shown) [M456] | 4.7 | 5.3 | Inact |  |  | 
CN1CCN(NC(=O)C(Cc2ccc3ccccc3c2)NC(=O)C=Cc2c(F)c(F)c(F)c(F)c2F)CC1 (stereo not shown) [M470] | 11 | 5.2 | Inact |  |  | 
CN1CCN(NC(=O)C(Cc2ccc3ccccc3c2)NC(=O)C=Cc2ccc(N(C)C)cc2)CC1 (stereo not shown) [M472] | 25 | 5.3 | Inact |  |  | 
CC1(C)CC(NC(=O)C(Cc2csc3ccccc23)NC(=O)C=Cc2cccs2)CC(C)(C)N1 (stereo not shown) [M476] | 15 | 4.6 | Inact |  |  | 
CN(C)c1ccc(C=CC(=O)NC(Cc2ccc3ccccc3c2)C(=O)N2CCSCC2)cc1 (stereo not shown) [M478] | 30 | 5.1 | Inact |  |  | 
CN1CCN(NC(=O)C(Cc2ccc3ccccc3c2)NC(=O)c2cccc(NC(=O)C=Cc3c(F)c(F)c(F)c(F)c3F)c2)CC1 (stereo not shown) [M492] | 45 | 5.1 | Inact |  |  | 
CN(C)CCCNC(=O)C(Cc1ccc2ccccc2c1)NC(=O)C=Cc1c(F)c(F)c(F)c(F)c1F (stereo not shown) [M526] | 10 | 5.4 | Inact |  |  | 
CN(C)c1ccc(C=CC(=O)NC(Cc2ccc(OCc3c(Cl)cccc3Cl)cc2)C(=O)NC2CC(C)(C)NC(C)(C)C2)cc1 (stereo not shown) [M582] | 3 | 5.4 | 9.5 |  |  | 
COC(=O)CCCCCCCCC(=O)Nc1ccc(C=CC(=O)NC(C(=O)NC2CC(C)(C)NC(C)(C)C2)C2Cc3ccccc3C2)cc1 (stereo not shown) [M586-A] | 15 | 5.3 | 12 |  |  | 
CN(C(=O)C=Cc1c(F)c(F)c(F)c(F)c1F)C(Cc1ccc(OCc2c(Cl)cccc2Cl)cc1)C(=O)NC1CC(C)(C)NC(C)(C)C1 (stereo not shown) [M594] | 3.7 | 5.0 | 8 |  |  | 
O=C(C=Cc1ccc(NC(=O)CCCCCCCCCCC(=O)Nc2ccc(C=CC(=O)NC(Cc3ccc4ccccc4c3)C(=O)NC3CCNCC3)cc2)cc1)NC(Cc1ccc2ccccc2c1)C(=O)NC1CCNCC1 (stereo not shown) [M606] | 30 | 5.0 | 10 |  |  | 
DDD-(Arg-DIgl-Oic-Arg)2 [M226] |  |  |  | 35 | 5.7 | Inact
DDD-(DArg-2Nal-Arg-NH2)2 [M510] |  |  |  | 8 | Inact | 11
DDD-(DArg-Arg-Aud-Pac-2Nal-Arg)2 [M516] |  |  |  | 1.4 | 0 | Ag
DDD-(DArg-OC2Y-Arg)2 [M518] |  |  |  | 15 |  | 10
DDD-(Eac-Arg-DIgl-Oic-Arg-OMe)2 [M608] |  |  |  | 13 |  | Inact
DDD-(Lys-Pac-Gly-mABz-2Nal-NH2)2 [M494] |  |  |  | 33 | 5.1 | Inact
DDD-(Pac-2Nal-Arg)2 [M484] |  |  |  | 25 | Inact | Inact
DDD-(Pac-2Nal-Arg-NH2)2 [M498] |  |  |  | 24 | 4.9 | Inact
DDD-(pABz-2Nal-Arg)2 [M400] |  |  |  | 22 | 5.1 | 11.5
DDD-(pABz-2Nal-Arg-NH2)2 [M500] |  |  |  | 40 | 0 | 11.4
F5c-2Nal-Arg [M446] |  |  |  | 60 | 4.7 | 9
